Source: ChEMBL document CHEMBL1201862, “PubChem BioAssay data set” (2004)
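Each compound was tested at five concentrations against cells in 96-well plates for 48 hours. GI50 = concentration required for 50% inhibition of growth.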 Activity calls are given as the source filed them. No stated cut-off is given here; in the data, active = GI50 up to about 1.1 µM and inactive = higher.

Legend:
Experiment in all cases: NCI-60 cell line screen, 48 h
K562 = tested on: K562
NCI-H460 = tested on: NCI-H460
A498 = tested on: A498
SW-620 = tested on: SW-620
SK-OV-3 = tested on: SK-OV-3
NCI-H522 = tested on: NCI-H522
SNB-19 = tested on: SNB-19
LOX IMVI = tested on: LOX IMVI
HCT-15 = tested on: HCT-15
HCT-116 = tested on: HCT-116
SF-539 = tested on: SF-539
SNB-75 = tested on: SNB-75
HOP-92 = tested on: HOP-92
OVCAR-8 = tested on: OVCAR-8
MOLT-4 = tested on: MOLT-4
KM12 = tested on: KM12
UACC-257 = tested on: UACC-257
MDA-MB-231 = tested on: MDA-MB-231
OVCAR-4 = tested on: OVCAR-4
DU-145 = tested on: DU-145

Compound | GI50 (K562) | GI50 (NCI-H460) | GI50 (A498) | GI50 (SW-620) | GI50 (SK-OV-3) | GI50 (NCI-H522) | GI50 (SNB-19) | GI50 (LOX IMVI) | GI50 (HCT-15) | GI50 (HCT-116) | GI50 (SF-539) | GI50 (SNB-75) | GI50 (HOP-92) | GI50 (OVCAR-8) | GI50 (MOLT-4) | GI50 (KM12) | GI50 (UACC-257) | GI50 (MDA-MB-231) | GI50 (OVCAR-4) | GI50 (DU-145)
COc1ccc(N2C(=O)C3C=CC(n4[nH]c(=O)n(Cc5ccccc5)c4=O)CC3C2=O)cc1 (centres undefined) | > 100 µM (inactive) | > 100 µM (inactive) | 86.7 µM (inactive) | > 100 µM (inactive) | > 100 µM (inactive) | > 100 µM (inactive) | > 100 µM (inactive) | > 100 µM (inactive) | > 100 µM | > 100 µM (inactive) | > 100 µM (inactive) | > 100 µM (inactive) | > 100 µM (inactive) | > 100 µM (inactive) | > 100 µM (inactive) | > 100 µM (inactive) | > 100 µM (inactive) | – | – | –
CO/C(=N/N1CC1C(F)(F)F)c1ccncc1 (centres undefined) | > 100 µM (inactive) | > 100 µM (inactive) | > 100 µM (inactive) | – | 54.7 µM (inactive) | > 100 µM (inactive) | > 100 µM (inactive) | – | > 100 µM | > 100 µM (inactive) | – | > 100 µM (inactive) | > 100 µM (inactive) | > 100 µM (inactive) | 30.8 µM (inactive) | > 100 µM (inactive) | – | > 100 µM (inactive) | > 100 µM (inactive) | > 100 µM (inactive)
CCOC1=C2N=C(Cc3ccc(F)cc3)NC2C(=O)c2ccccc21 (centres undefined) | 17.9 µM (inactive) | 12.6 µM (inactive) | 21.6 µM (inactive) | – | 38.2 µM (inactive) | 8.67 µM (inactive) | – | 22.2 µM (inactive) | – | > 10 µM (inactive) | 13.3 µM (inactive) | 15.7 µM (inactive) | 10.7 µM (inactive) | 20.6 µM (inactive) | 17.5 µM (inactive) | 27.5 µM (inactive) | 7.91 µM (inactive) | – | – | –
O=C(O)CCC(NC(=O)c1ccc(Nc2nc3cc(C(F)(F)F)ccc3nc2C(=O)O)cc1)C(=O)O (centres undefined) | > 100 µM (inactive) | > 100 µM (inactive) | > 100 µM (inactive) | > 100 µM (inactive) | – | > 100 µM (inactive) | > 100 µM (inactive) | > 100 µM (inactive) | > 100 µM | > 100 µM (inactive) | > 100 µM (inactive) | > 100 µM (inactive) | > 100 µM (inactive) | > 100 µM (inactive) | > 100 µM (inactive) | > 100 µM (inactive) | > 100 µM (inactive) | > 100 µM (inactive) | – | > 100 µM (inactive)
COC(=O)c1cccc(C(=O)OC)c1 | – | > 100 µM (inactive) | > 100 µM (inactive) | > 100 µM (inactive) | > 100 µM (inactive) | > 100 µM (inactive) | > 100 µM (inactive) | > 100 µM (inactive) | > 100 µM | > 100 µM (inactive) | – | > 100 µM (inactive) | > 100 µM (inactive) | – | > 100 µM (inactive) | > 100 µM (inactive) | > 100 µM (inactive) | – | > 100 µM (inactive) | –
O=C1NC2(CCCCC2)C2CCCCCC12 (centres undefined) | > 100 µM (inactive) | > 100 µM (inactive) | > 100 µM (inactive) | > 100 µM (inactive) | > 100 µM (inactive) | – | > 100 µM (inactive) | > 100 µM (inactive) | > 100 µM | > 100 µM (inactive) | > 100 µM (inactive) | > 100 µM (inactive) | – | – | > 100 µM (inactive) | > 100 µM (inactive) | > 100 µM (inactive) | – | > 100 µM (inactive) | –
Cn1c2c(c3ccccc31)CCN(CCCCN1CCCCC1)C2=O | > 100 µM (inactive) | > 100 µM (inactive) | > 100 µM (inactive) | > 100 µM (inactive) | > 100 µM (inactive) | > 100 µM (inactive) | > 100 µM (inactive) | – | > 100 µM | 84.5 µM (inactive) | > 100 µM (inactive) | – | > 100 µM (inactive) | > 100 µM (inactive) | > 100 µM (inactive) | – | 62.7 µM (inactive) | – | > 100 µM (inactive) | –
Cc1ccc([N+](=O)[O-])cc1S(=O)(=O)Nc1ccc(C2=NNC(c3cccs3)C2)cc1 (centres undefined) | 17.4 µM (inactive) | 25.4 µM (inactive) | 20.4 µM (inactive) | 34.1 µM (inactive) | 20.7 µM (inactive) | 24.7 µM (inactive) | 28.8 µM (inactive) | 28.7 µM (inactive) | 17 µM | 22.5 µM (inactive) | 48.1 µM (inactive) | 31.3 µM (inactive) | 60 µM (inactive) | 54.2 µM (inactive) | 13.7 µM (inactive) | 16.5 µM (inactive) | 26.9 µM (inactive) | – | 22 µM (inactive) | 30.3 µM (inactive)
N#CC(=N)c1ncn(-c2ccccc2N)c1N | > 100 µM (inactive) | > 100 µM (inactive) | > 100 µM (inactive) | > 100 µM (inactive) | > 100 µM (inactive) | > 100 µM (inactive) | > 100 µM (inactive) | > 100 µM (inactive) | > 100 µM | > 100 µM (inactive) | > 100 µM (inactive) | > 100 µM (inactive) | – | > 100 µM (inactive) | > 100 µM (inactive) | > 100 µM (inactive) | > 100 µM (inactive) | > 100 µM (inactive) | > 100 µM (inactive) | > 100 µM (inactive)
COc1ccc2c(C)cc(N/N=C/c3sccc3C)nc2c1 | – | – | – | 21.6 µM (inactive) | 17.1 µM (inactive) | 10.2 µM (inactive) | 21.7 µM (inactive) | 7.59 µM (inactive) | 6.03 µM | 4.08 µM (inactive) | 14.3 µM (inactive) | 12.1 µM (inactive) | 16.1 µM (inactive) | 13.4 µM (inactive) | 13.5 µM (inactive) | 8.05 µM (inactive) | 10.1 µM (inactive) | 1.43 µM (inactive) | 20.9 µM (inactive) | 6.68 µM (inactive)
CCOC(=O)NC(=O)c1cn(CCSCCOC(=O)NCCCCCCNC(=O)OCCSCCn2cc(C(=O)NC(=O)OCC)c(=O)[nH]c2=O)c(=O)[nH]c1=O | > 100 µM (inactive) | > 100 µM (inactive) | – | > 100 µM (inactive) | > 100 µM (inactive) | – | > 100 µM (inactive) | > 100 µM (inactive) | > 100 µM | > 100 µM (inactive) | > 100 µM (inactive) | > 100 µM (inactive) | > 100 µM (inactive) | > 100 µM (inactive) | – | – | > 100 µM (inactive) | – | > 100 µM (inactive) | –
CN(C)CCSc1nccc(-c2ccc(-c3ccnc(SCCN(C)C)n3)s2)n1 | 6.08 µM (inactive) | 3.01 µM (inactive) | 15.1 µM (inactive) | 3.18 µM (inactive) | 19.1 µM (inactive) | 15.9 µM (inactive) | 11.1 µM (inactive) | 3.42 µM (inactive) | 4.65 µM | 3.33 µM (inactive) | 6.87 µM (inactive) | 14.4 µM (inactive) | 10.9 µM (inactive) | 6.1 µM (inactive) | 0.76 µM (active) | 4.91 µM (inactive) | 16.7 µM (inactive) | – | 4.13 µM (inactive) | –
O=C(NNC(=S)NCc1ccccc1)C12CC3CC(CC(C3)C1)C2 | 55.5 µM (inactive) | 36.3 µM (inactive) | > 100 µM (inactive) | 48 µM (inactive) | > 100 µM (inactive) | > 100 µM (inactive) | > 100 µM (inactive) | 35.4 µM (inactive) | 53.3 µM | 34.5 µM (inactive) | > 100 µM (inactive) | 49.4 µM (inactive) | – | > 100 µM (inactive) | 19.1 µM (inactive) | 40.6 µM (inactive) | 52.5 µM (inactive) | > 100 µM (inactive) | 76.6 µM (inactive) | 85.9 µM (inactive)
CN(C)C/C=C(/c1ccc(Br)cc1)c1cccnc1 | 32.2 µM (inactive) | 81.3 µM (inactive) | 20.3 µM (inactive) | > 100 µM (inactive) | 71.1 µM (inactive) | 56.4 µM (inactive) | > 100 µM (inactive) | – | > 100 µM | 71 µM (inactive) | > 100 µM (inactive) | 51.5 µM (inactive) | 64.6 µM (inactive) | > 100 µM (inactive) | 47.9 µM (inactive) | 74.1 µM (inactive) | 18.2 µM (inactive) | 32.7 µM (inactive) | > 100 µM (inactive) | > 100 µM (inactive)
CC1(C)C2CCC3(OCCO3)C1C(O)C2 (centres undefined) | > 100 µM (inactive) | > 100 µM (inactive) | > 100 µM (inactive) | > 100 µM (inactive) | – | > 100 µM (inactive) | > 100 µM (inactive) | > 100 µM (inactive) | > 100 µM | > 100 µM (inactive) | > 100 µM (inactive) | > 100 µM (inactive) | > 100 µM (inactive) | > 100 µM (inactive) | > 100 µM (inactive) | > 100 µM (inactive) | > 100 µM (inactive) | – | > 100 µM (inactive) | –
CCOC(=O)CC(NC(=O)c1ccc(/N=N/N(C)C)cc1)C(=O)OCC (centres undefined) | > 100 µM (inactive) | > 100 µM (inactive) | > 100 µM (inactive) | > 100 µM (inactive) | > 100 µM (inactive) | > 100 µM (inactive) | > 100 µM (inactive) | > 100 µM (inactive) | > 100 µM | > 100 µM (inactive) | > 100 µM (inactive) | 91.8 µM (inactive) | – | > 100 µM (inactive) | > 100 µM (inactive) | > 100 µM (inactive) | > 100 µM (inactive) | – | > 100 µM (inactive) | –
c1ccc(/N=C2/SC3=Nc4cccc5cccc(c45)N3/C2=N/c2ccccc2)cc1 | > 100 µM (inactive) | > 100 µM (inactive) | > 100 µM (inactive) | – | > 100 µM (inactive) | > 100 µM (inactive) | > 100 µM (inactive) | – | > 100 µM | > 10 µM (inactive) | – | > 100 µM (inactive) | > 100 µM (inactive) | > 100 µM (inactive) | 79.3 µM (inactive) | > 100 µM (inactive) | – | > 100 µM (inactive) | – | > 100 µM (inactive)
